The record followed here is patent US10041937B2, “Macrophage identification agent, and identification method, sorting method, evaluation method, screening method and kit using the macrophage identifier agent” (CANON KABUSHIKI KAISHA, priority 2013, dated 2018).

Assay [1] relates to M1 macrophages and M2 macrophages differentiated from mouse bone marrow cells. As to the kind of experiment: Subtype identification by staining and flow cytometry of M1 and M2 macrophages differentiated from mouse bone marrow cells. It counts as cell-based, Balb/c mouse. The procedure, abridged:
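Balb/c mouse bone marrow cells were differentiated to macrophages with 50 ng/mL M-CSF over two 3–4-day periods, then polarized for 3 days to M1 (interferon-γ plus polyliposaccharide) or M2 (IL-4). Live cells (aqua dye-negative) were analysed by flow cytometry; resolution R = |FM1−FM2|/(WM1+WM2) from histogram peak positions and widths indexed subtype discrimination.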
For orientation: A flow cytometer gives signals particle by particle.

Assay [2] has as its system M1 macrophages and M2 macrophages differentiated from RAW264.7 cells. As to the kind of experiment: Identification of macrophage subtypes differentiated from mouse cell line RAW264.7. The note with it: RAW264.7 derived M1 and M2. It is filed as cell-based. The method, then:
The subtypes were identified by using the compound (1) in the same manner as in Example 1 except that the macrophage subtypes differentiated from the mouse bone marrow cells were changed to macrophage subtypes differentiated from a cell line established from mouse monocytic leukemia.
The culture of subtypes was performed with reference to NPL 9. Specifically, RAW264.7 cells purchased from American Type Culture Collection, that is, a cell line established from mouse monocytic leukemia, were subcultured several times, and the resultant cells were dispersed to a concentration of 3.3×10^4/mL in a D-MEM containing 10% FBS, 1% P/S and 1% MEM-NEAA, and 3.3×10^5 cells were seeded in a 100 mm dish. The cells were grown by incubation performed in the presence of 5% CO2 at 37° C. After 2 to 4 days, it was confirmed that an area of about to 70% of the bottom of the dish had been covered by the cells, the medium was then exchanged, and by adding 200 ng of interferon-γ and 1 μg of polyliposaccharide (both manufactured by Pepro Tech) to the medium, the cells were differentiated to the subtype M1. Besides, by adding 100 ng of IL-4, the cells were differentiated to the subtype M2. […]
A histogram was prepared by plotting fluorescence intensity obtained in the FITC channel on the abscissa and plotting the number of cells at each fluorescence intensity on the ordinate, which is shown in FIG. 9.

Where [3] appears, read: fluorescence intensity at peak top of histogram, compound 1 μM, 37° C., 30 minutes.

In the case of `CCOC(=O)CCN1C(=O)/C(=C\c2ccc3c(c2)C2CCCC2N3CC)SC1=S` (stereo not drawn) [compound (1)], in assay [1] (R=|FM1−FM2|/(WM1+WM2), compound 1 μM), the “Resolution ratio R” value is reported as 1.150. Moreover, in assay [1] (setting [3]), the “Peak position of M1 macrophage” value stood at 85.8 and the “Peak position of M2 macrophage” value is given as 12.4. Further, the “Evaluation of macrophage subtype identification” value in assay [1] (rated from resolution R) is listed as “A (The compound is very good in the subtype identification (namely, the resolution R is 0.5 or more))”. Also, in assay [1] (two compounds used in combination, each 1 μM), the “subtype more strongly stained” value is recorded as “the M1 macrophages are more strongly stained than the M2 macrophages”. In assay [2], the “subtype more strongly stained” value was “the M1 macrophages were stained more strongly than the M2 macrophages”.
